Laboratory results: US20240090503A1, “FUNGICIDAL OXADIAZOLES AND THEIR MIXTURES” (FMC CORPORATION, priority 2020, published 2024)
Marks after values point to notes of the source that are not given here.

What was measured:
Type in all cases: in vivo
[1] = test system: Puccinia recondita f. sp. tritici (the causal agent of wheat leaf rust); test: Test C: preventive spray on wheat seedlings, wheat leaf rust, visual disease rating; conditions: wheat seedlings
Procedure, shortened: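 Wheat seedlings sprayed to run-off with compound in acetone/water (50/50) with 250 ppm PEG400, then inoculated with spores the following day. After 24 h saturated humidity at 20° C. and 6 days in growth chamber at 20° C., disease rated visually as % control relative to untreated controls.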

[2] = test system: Zymoseptoria tritici (the causal agent of wheat leaf blotch); test: Test B: preventive spray on wheat seedlings, wheat leaf blotch, visual disease rating; conditions: wheat seedlings
Source text: General protocol for preparing test suspensions for Tests A-D: the test compounds were first dissolved in acetone in an amount equal to 3% of the final volume and then suspended at the desired concentration (in ppm) in acetone and purified water (50/50 mix by volume) containing 250 ppm of the surfactant PEG400 (polyhydric alcohol esters). The resulting test suspensions were then used in Tests A-D.
The test suspension was sprayed to the point of run-off on wheat seedlings. The following day the seedlings were inoculated with a spore suspension of Zymoseptoria tritici (the causal agent of wheat leaf blotch) and incubated in a saturated atmosphere at 24° C. for 48 h, and then moved to a growth chamber at 20° C. for 17 days, after which time visual disease ratings were made.
The test results for Tests A-C presented in Table A below for compounds of Formula 1 illustrate the fungicidal activity of component (a) contributing to the plant disease control utility of compositions comprising component (a) in combination with component (b) according to the present invention. In the Table, a rating of 100 indicates 100% disease control and a rating of 0 indicates no disease control (relative to the controls). A dash (-) indicates the compound was not tested. The test suspensions were sprayed at the concentration listed in the column “Rate in ppm”, unless otherwise indicated. An asterisk “*” next to the rating indicates a 250 ppm test suspension was used, a double asterisk “**” next to the rating indicates a 100 ppm test suspension was used, and a triple asterisk “***” next to the rating indicates a 50 ppm test suspension was used.

[3] = test system: Phakopsora pachyrhizi (the causal agent of Asian soybean rust); test: Test A: preventive spray on soybean seedlings, Asian soybean rust, visual disease rating; conditions: soybean seedlings
Procedure, shortened: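 Preventive test: soybean seedlings received a run-off spray of compound suspended at the set ppm in 50/50 acetone/water plus 250 ppm PEG400, and one day later a P. pachyrhizi spore inoculum. Visual scoring (0 none to 100 full disease control) followed 24 h saturated incubation and 8 days' growth chamber, both at 22° C.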

[4] = test suspension 10 ppm, 100 = 100% disease control, 0 = no control
[5] = test suspension 100 ppm (** next to rating)

## CCOC(=O)C1=NOC(Cc2ccc(-c3noc(C(F)(F)F)n3)cc2)C1 (stereo not drawn) [compound 29]
[1]; test suspension 10 ppm
  Test C disease control rating: 19%
[2]; test suspension 250 ppm
  Test B disease control rating: 94* %
[3]; [4]
  Test A disease control rating: 73%

## C#CCOC(=O)c1cnn(Cc2ccc(-c3noc(C(F)(F)F)n3)cc2)c1 [compound 56]
[1]; test suspension 10 ppm
  Test C disease control rating: 100%
[2]; [5]
  Test B disease control rating: 68** %
[3]; [4]
  Test A disease control rating: 100%

## CC(C)OC(=O)c1cnn(Cc2ccc(-c3noc(C(F)(F)F)n3)cc2)c1 [compound 58]
[1]; test suspension 10 ppm
  Test C disease control rating: 100%
[2]; [5]
  Test B disease control rating: 83** %
[3]; [4]
  Test A disease control rating: 100%

## COCCOC(=O)c1cnn(Cc2ccc(-c3noc(C(F)(F)F)n3)cc2)c1 [compound 59]
[1]; test suspension 10 ppm
  Test C disease control rating: 100%
[2]; [5]
  Test B disease control rating: 58** %
[3]; [4]
  Test A disease control rating: 100%

## CCCOC(=O)c1cnn(Cc2ccc(-c3noc(C(F)(F)F)n3)cc2)c1 [compound 60]
[1]; test suspension 10 ppm
  Test C disease control rating: 100%
[2]; [5]
  Test B disease control rating: 75** %
[3]; [4]
  Test A disease control rating: 100%

## CCOC(=O)c1cnn(Cc2ccc(-c3noc(C(F)(F)F)n3)s2)c1 [compound 70]
[1]; test suspension 255 ppm
  Test C disease control rating: 100%
[2]; test suspension 255 ppm
  Test B disease control rating: 96%
[3]; test suspension 255 ppm
  Test A disease control rating: 100%

## N#Cc1nn(Cc2ccc(-c3noc(C(F)(F)F)n3)s2)cc1Br [compound 76]
[1]; test suspension 270 ppm
  Test C disease control rating: 99%
[2]; test suspension 270 ppm
  Test B disease control rating: 41%
[3]; test suspension 270 ppm
  Test A disease control rating: 100%

## CCOC(=O)c1nn(Cc2ccc(-c3noc(C(F)(F)F)n3)cc2)nc1Br [compound 84]
[1]; test suspension 250 ppm
  Test C disease control rating: 100%
[2]; test suspension 250 ppm
  Test B disease control rating: 66%
[3]; test suspension 250 ppm
  Test A disease control rating: 100%

## FC(F)(F)c1nc(-c2ccc(Cn3ccc4cccnc43)cc2)no1 [compound 86]
[1]; test suspension 250 ppm
  Test C disease control rating: 100%
[2]; test suspension 250 ppm
  Test B disease control rating: 89%
[3]; test suspension 250 ppm
  Test A disease control rating: 100%

## O=C1C(=O)N(Cc2ccc(-c3noc(C(F)(F)F)n3)cc2)c2ccccc21 [compound 87]
[1]; test suspension 250 ppm
  Test C disease control rating: 100%
[2]; test suspension 250 ppm
  Test B disease control rating: 82%
[3]; test suspension 250 ppm
  Test A disease control rating: 100%

## N#Cc1ccc2ccn(Cc3ccc(-c4noc(C(F)(F)F)n4)cc3)c2c1 [compound 88]
[1]; test suspension 250 ppm
  Test C disease control rating: 100%
[2]; test suspension 250 ppm
  Test B disease control rating: 93%
[3]; test suspension 250 ppm
  Test A disease control rating: 100%

## N#Cc1ccn(Cc2ccc(-c3noc(C(F)(F)F)n3)cc2)c(=O)c1 [compound 89]
[1]; test suspension 250 ppm
  Test C disease control rating: 100%
[2]; test suspension 250 ppm
  Test B disease control rating: 83%
[3]; test suspension 250 ppm
  Test A disease control rating: 100%

## FC(F)(F)c1nc(-c2ccc(Cn3cnc4ccccc43)cc2)no1 [compound 91]
[1]; test suspension 250 ppm
  Test C disease control rating: 100%
[2]; test suspension 250 ppm
  Test B disease control rating: 96%
[3]; test suspension 250 ppm
  Test A disease control rating: 100%

## FC(F)(F)c1nc(-c2ccc(Cn3nnc4ccccc43)cc2)no1 [compound 92]
[1]; test suspension 250 ppm
  Test C disease control rating: 100%
[2]; test suspension 250 ppm
  Test B disease control rating: 96%
[3]; test suspension 250 ppm
  Test A disease control rating: 0%

## FC(F)(F)c1nc(-c2ccc(Cn3nc4ccccc4n3)cc2)no1 [compound 93]
[1]; test suspension 250 ppm
  Test C disease control rating: 99%
[2]; test suspension 250 ppm
  Test B disease control rating: 39%
[3]; test suspension 250 ppm
  Test A disease control rating: 100%

## O=[N+]([O-])c1ccc2c(cnn2Cc2ccc(-c3noc(C(F)(F)F)n3)cc2)c1 [compound 94]
[1]; test suspension 250 ppm
  Test C disease control rating: 78%
[2]; test suspension 250 ppm
  Test B disease control rating: 35%
[3]; test suspension 250 ppm
  Test A disease control rating: 100%

## FC(F)(F)c1nc(-c2ccc(CN3CCOCC3)cc2)no1 [compound 96]
[1]; test suspension 250 ppm
  Test C disease control rating: 99%
[2]; test suspension 250 ppm
  Test B disease control rating: 0%
[3]; test suspension 250 ppm
  Test A disease control rating: 100%

## CCOC(=O)c1cn(Cc2ccc(-c3noc(C(F)(F)F)n3)cc2)nc1C(F)(F)F [compound 111]
[1]; test suspension 255 ppm
  Test C disease control rating: 86%
[2]; test suspension 255 ppm
  Test B disease control rating: 0%
[3]; test suspension 255 ppm
  Test A disease control rating: 100%

## CCOC(=O)c1ccn(Cc2ccc(-c3noc(C(F)(F)F)n3)cc2)n1 [compound 114]
[1]; test suspension 250 ppm
  Test C disease control rating: 100%
[2]; test suspension 250 ppm
  Test B disease control rating: 0%
[3]; test suspension 250 ppm
  Test A disease control rating: 100%

## FC(F)(F)c1nc(-c2ccc(Cn3nc(Cl)c4ccccc43)cc2)no1 [compound 116]
[1]; test suspension 265 ppm
  Test C disease control rating: 99%
[2]; test suspension 265 ppm
  Test B disease control rating: 25%
[3]; test suspension 265 ppm
  Test A disease control rating: 100%

## CCOC(=O)c1nn(Cc2ccc(-c3noc(C(F)(F)F)n3)cc2)c2ccccc12 [compound 117]
[1]; test suspension 255 ppm
  Test C disease control rating: 41%
[2]; test suspension 255 ppm
  Test B disease control rating: 0%
[3]; test suspension 255 ppm
  Test A disease control rating: 88%

## O=c1oc2ccccc2n1Cc1ccc(-c2noc(C(F)(F)F)n2)cc1 [compound 118]
[1]; test suspension 250 ppm
  Test C disease control rating: 98%
[2]; test suspension 250 ppm
  Test B disease control rating: 0%
[3]; test suspension 250 ppm
  Test A disease control rating: 100%

## FC(F)(F)c1nc(-c2ccc(Cn3ncc4cc(Cl)ccc43)cc2)no1 [compound 119]
[1]; test suspension 265 ppm
  Test C disease control rating: 100%
[2]; test suspension 265 ppm
  Test B disease control rating: 54%
[3]; test suspension 265 ppm
  Test A disease control rating: 100%

## COc1ccc2c(C#N)nn(Cc3ccc(-c4noc(C(F)(F)F)n4)cc3)c2c1 [compound 120]
[1]; test suspension 260 ppm
  Test C disease control rating: 68%
[2]; test suspension 260 ppm
  Test B disease control rating: 0%
[3]; test suspension 260 ppm
  Test A disease control rating: 99%

## FC(F)(F)c1nc(-c2ccc(Cn3ccc(-c4ccc(Cl)cc4)n3)cc2)no1 [compound 122]
[1]; test suspension 250 ppm
  Test C disease control rating: 68%
[2]; test suspension 250 ppm
  Test B disease control rating: 0%
[3]; test suspension 250 ppm
  Test A disease control rating: 100%

## CCOC(=O)c1c2ccccc2nn1Cc1ccc(-c2noc(C(F)(F)F)n2)cc1 [compound 123]
[1]; test suspension 255 ppm
  Test C disease control rating: 99%
[2]; test suspension 255 ppm
  Test B disease control rating: 21%
[3]; test suspension 255 ppm
  Test A disease control rating: 100%

## CCOC(=O)C1CCN(Cc2ccc(-c3noc(C(F)(F)F)n3)cc2)C1 (stereo not drawn) [compound 124]
[1]; test suspension 260 ppm
  Test C disease control rating: 100%
[2]; test suspension 260 ppm
  Test B disease control rating: 50%
[3]; test suspension 260 ppm
  Test A disease control rating: 100%

## Fc1cccc2c1cnn2Cc1ccc(-c2noc(C(F)(F)F)n2)cc1 [compound 125]
[1]; test suspension 260 ppm
  Test C disease control rating: 100%
[2]; test suspension 260 ppm
  Test B disease control rating: 55%
[3]; test suspension 260 ppm
  Test A disease control rating: 100%

## FC(F)(F)c1nc(-c2ccc(Cn3ncc4cc(Br)ccc43)cc2)no1 [compound 128]
[1]; test suspension 255 ppm
  Test C disease control rating: 100%
[2]; test suspension 255 ppm
  Test B disease control rating: 19%
[3]; test suspension 255 ppm
  Test A disease control rating: 100%

## N#Cc1cn(Cc2ccc(-c3noc(C(F)(F)F)n3)cc2)c2ccccc12 [compound 129]
[1]; test suspension 260 ppm
  Test C disease control rating: 89%
[2]; test suspension 260 ppm
  Test B disease control rating: 0%
[3]; test suspension 260 ppm
  Test A disease control rating: 100%

## Fc1cccc2nn(Cc3ccc(-c4noc(C(F)(F)F)n4)cc3)cc12 [compound 130]
[1]; test suspension 260 ppm
  Test C disease control rating: 100%
[2]; test suspension 260 ppm
  Test B disease control rating: 89%
[3]; test suspension 260 ppm
  Test A disease control rating: 100%

## Cc1cc(C(F)(F)F)nn1Cc1ccc(-c2noc(C(F)(F)F)n2)cc1 [compound 132]
[1]; test suspension 270 ppm
  Test C disease control rating: 95%
[2]; test suspension 270 ppm
  Test B disease control rating: 0%
[3]; test suspension 270 ppm
  Test A disease control rating: 100%

## FC(F)(F)c1nc(-c2ccc(Cn3cc4cc(Br)ccc4n3)cc2)no1 [compound 133]
[1]; test suspension 255 ppm
  Test C disease control rating: 100%
[2]; test suspension 255 ppm
  Test B disease control rating: 59%
[3]; test suspension 255 ppm
  Test A disease control rating: 100%

## COC(=O)c1nn(Cc2ccc(-c3noc(C(F)(F)F)n3)cc2)c2ccccc12 [compound 134]
[1]; test suspension 255 ppm
  Test C disease control rating: 80%
[2]; test suspension 255 ppm
  Test B disease control rating: 0%
[3]; test suspension 255 ppm
  Test A disease control rating: 100%
